Each structure is given as a SMILES string.

For this test, the target named is T1, hSTING (Homo sapiens, UniProt Q86WV6, G230A/H232R/R293Q/R71H).
T1 construct: host or cells: THP1-Dual KO-IFNAR2 cells
T1 sequence (Q86WV6 whole entry R71H/G230A/H232R/R293Q): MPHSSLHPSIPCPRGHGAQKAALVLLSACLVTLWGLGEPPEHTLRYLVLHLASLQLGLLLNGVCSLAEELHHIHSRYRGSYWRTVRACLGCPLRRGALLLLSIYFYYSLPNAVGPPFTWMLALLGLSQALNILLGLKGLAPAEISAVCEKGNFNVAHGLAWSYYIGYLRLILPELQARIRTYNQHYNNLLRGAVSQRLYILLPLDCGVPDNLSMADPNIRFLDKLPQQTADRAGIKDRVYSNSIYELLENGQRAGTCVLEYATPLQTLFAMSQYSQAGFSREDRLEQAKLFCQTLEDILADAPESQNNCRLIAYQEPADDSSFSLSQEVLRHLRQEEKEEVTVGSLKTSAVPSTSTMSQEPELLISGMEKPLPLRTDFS
As to the kind of experiment: STING reporter assay (luciferase reporter) in THP1-Dual KO-IFNAR2 cells activated with 2′3′cGAMP. Conditions: 15 μM 2′3′cGAMP, 24 h, luciferase reporter activity. In kind it is cell-based. As to the method: STING pathway activation by the compounds described herein is measured using THP1-Dual™ cells (KO-IFNAR2).
THP1-Dual™ KO-IFNAR2 Cells (obtained from invivogen) are maintained in RPMI, 10% FCS, 5 ml P/S, 2 mM L-glut, 10 mM Hepes, and 1 mM sodium pyruvate. Compounds are spotted in empty 384 well tissue culture plates (Greiner 781182) by Echo for a final concentration of […]. Cells are plated into the TC plates at 40 μL per well, 2×10E6 cells/mL. For activation with STING ligand, 2′3′cGAMP (MW 718.38, obtained from Invivogen), is prepared in Optimem media.
The following solutions are prepared for each 1×384 plate: • Solution A: 2 mL Optimem with one of the following stimuli: • 60 uL of 10 mM 2′3′cGAMP→150 μM stock • Solution B: 2 mL Optimem with 60 μL Lipofectamine 2000→Incubate 5 min at RT
2 mL of solution A and 2 ml Solution B is mixed and incubated for 20 min at room temperature (RT). 20 uL of transfection solution (A+B) is added on top of the plated cells, with a final 2′3′cGAMP concentration of 15 μM. The plates are then centrifuged immediately at 340 g for 1 minute, after which they are incubated at 37° C., 5% CO2, >98% humidity for 24 h. Luciferase reporter activity is then measured. EC50 values were calculated by using standard methods known in the art.
Luciferase Reporter Assay:
10 μL of supernatant from the assay is transferred to white 384-plate with flat bottom and squared wells. one pouch of QUANTI-Luc™ Plus is dissolved in 25 mL of water. 100 μL of QLC Stabilizer per 25 mL of QUANTI-Luc™ Plus solution was added. 50 μL of QUANTI-Luc™ Plus/QLC solution per well is then added. Luminescence is measured on a Platereader (e.g., Spectramax I3X (Molecular Devices GF3637001)).
Luciferase reporter activity is then measured. EC50 values are calculated by using standard methods known in the art.
On the technique in general: A reporter such as luciferase makes a cellular process visible.
Turning to `CCCCc1ccc(N(CC)C(=O)Nc2c[nH]c3ncc(F)cc23)cc1` [Compound 245], the EC50 (in general, the midpoint of the concentration-response curve) lay within 5000 to 100000 nM.

Compound `CCCCc1ccc(N(C)C(=O)Nc2c[nH]c3ncc(F)cc23)cc1` [Compound 246] gave an EC50 of 1000 to 5000 nM.

For `O=C(Nc1c[nH]c2ncc(F)cc12)NC1CCC2(CCC2)CC1` [Compound 247], the EC50 lay within 1000 to 5000 nM.

`O=C(Nc1c[nH]c2ncc(F)cc12)NC1CCC(Cc2ccccc2)CC1` (centres unmarked) [Compound 248] came in with an EC50 of 200 to 1000 nM.

`Nc1cnc2[nH]cc(NC(=O)N3CC(c4ccccc4)C3)c2c1` [Compound 249] yielded an EC50 of 5000 to 100000 nM.

Consider `O=C(Nc1ccc(C2CCC2)c(F)c1)Nc1c[nH]c2ncc(F)cc12` [Compound 250], for which the EC50 is 200 to 1000 nM.

As to `C#Cc1cccc(NC(=O)Nc2c[nH]c3ncc(F)cc23)c1` [Compound 251], the concentration for a half-maximal effect (EC50) fell in the range of 200 to 1000 nM.

`O=C(Nc1c[nH]c2ncc(F)cc12)NC1CCN(CC(F)(F)F)CC1` [Compound 252] yielded an EC50 of 5000 to 100000 nM.

`CCCCc1ncc(NC(=O)Nc2c[nH]c3ncc(F)cc23)cc1F` [Compound 255] showed an EC50 of 200 to 1000 nM.

For `O=C(Nc1ccc(C(F)(F)F)nc1)Nc1c[nH]c2ncccc12` [Compound 257], the EC50 fell in the range of 5000 to 100000 nM.

For the compound `C#Cc1cnc2[nH]cc(NC(=O)Nc3ccc(C(F)(F)F)cc3)c2c1` [Compound 258, 1-(5-ethynyl-1H-pyrrolo[2,3-b]pyridin-3-yl)-3-(4-(trifluoromethyl)phenyl)urea], the EC50 fell in the range of 200 to 1000 nM.

Turning to `CCCCc1ccc(NC(=O)Nc2c[nH]c3ncc(F)cc23)nc1` [Compound 259], the EC50 fell in the range of 200 to 1000 nM.

In the case of `O=C(Nc1cccc(C2CCCCC2)n1)Nc1c[nH]c2ncc(F)cc12` [Compound 260], the EC50 is 1000 to 5000 nM.

The compound `O=C(Nc1ccc(C2CCCCC2)cn1)Nc1c[nH]c2ncc(F)cc12` [Compound 261] returned an EC50 of 40 to 200 nM.

Turning to `O=C(Nc1ccc(C2CCCCC2)nc1)Nc1c[nH]c2ncccc12` [Compound 263], the half-maximal effective concentration (EC50) fell in the range of 200 to 1000 nM.

The compound `O=C(Nc1ccc(C2CCCCC2)cn1)Nc1c[nH]c2ncccc12` [Compound 264] came in with an EC50 of 200 to 1000 nM.

As for `O=C(Nc1ccc(C(F)(F)F)cn1)Nc1c[nH]c2ncccc12` [Compound 265], the EC50 was in the range of 200 to 1000 nM.

Regarding `O=C(Nc1ccc(C(F)(F)F)cc1)Nc1c[nH]c2ncc(C3CCCCC3)cc12` [Compound 267, 3-[5-cyclohexyl-1H-pyrrolo[2,3-b]pyridin-3-yl]-1-[4-(trifluoromethyl)phenyl] urea], the EC50 lay in the range of 1000 to 5000 nM.

In turn, `CCc1cnc2[nH]cc(NC(=O)Nc3ccc(C(F)(F)F)cc3)c2c1` [Compound 268, 3-[5-ethyl-1H-pyrrolo[2,3-b]pyridin-3-yl]-1-[4-(trifluoromethyl)phenyl] urea] registered an EC50 of 200 to 1000 nM.

`O=C(Nc1c[nH]c2ncc(F)cc12)NC1CCC(C(F)(F)F)CC1` (centres unmarked) [Compound 270] showed a half-maximal effective concentration (EC50) of 5000 to 100000 nM.

Turning to `O=C(Nc1cccc(C2CCCCC2)c1)Nc1c[nH]c2ncc(F)cc12` [Compound 271], the concentration for a half-maximal effect (EC50) lay within 200 to 1000 nM.

Turning to `O=C(Nc1ccc(C2CCCCC2)nc1)Nc1c[nH]c2ncc(F)cc12` [Compound 272], the EC50 lay within 40 to 200 nM.

`CCCCC1CCC(NC(=O)Nc2c[nH]c3ncc(F)cc23)CC1` (centres unmarked) [Compound 273] gave an EC50 of 200 to 1000 nM.

In the case of `CCCCc1cccc(NC(=O)Nc2c[nH]c3ncc(F)cc23)c1` [Compound 274], the EC50 fell in the range of 40 to 200 nM.

In the case of `CCCCc1ccc(NC(=O)Nc2c[nH]c3ncc(F)cc23)cc1` [Compound 275], the EC50 lay in the range of 40 to 200 nM.

Turning to `C=Cc1cnc2[nH]cc(NC(=O)Nc3ccc(C(F)(F)F)cc3)c2c1` [Compound 276, 3-[5-ethenyl-1H-pyrrolo[2,3-b]pyridin-3-yl]-1-[4-(trifluoromethyl)phenyl] urea], the EC50 lay within 200 to 1000 nM.

In turn, `CC(NC(=O)Nc1c[nH]c2ncc(F)cc12)c1ccc2c(c1)OCCO2` (centres unmarked) [Compound 279] gave an EC50 of 5000 to 100000 nM.

`O=C(Nc1ccc(F)cn1)Nc1c[nH]c2ncc(F)cc12` [Compound 280] registered an EC50 of 1000 to 5000 nM.

The compound `O=C(Nc1ccc(C(F)(F)F)nc1)Nc1c[nH]c2ncc(F)cc12` [Compound 281] came in with an EC50 of 1000 to 5000 nM.

The values above are taken from US11618749B2, “Compounds and compositions for treating conditions associated with STING activity” (IFM Due, Inc., priority 2018, dated 2023).
